From ChEMBL document CHEMBL1201862, “PubChem BioAssay data set” (2004)
Calls of active or inactive are those of the source.

Assays:
BJ [1] = assay: BJ-TERT-LT-ST fibroblast viability loss – cell-based, RAS-independent, luminescence, dose response (AID 1935); format: functional; settings: Homo sapiens;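 further: BJ fibroblasts immortalized with TERT plus LT and ST oncogenes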
cells = format: functional
[2] = target: Lysine-specific demethylase 4C (Homo sapiens, UniProt Q9H3R0); assay: inhibition of JMJD2C H3K9me3 demethylation – biochemical, DELFIA europium, cherry-picked samples, dose response (AID 488835); format: functional
BJ [3] = assay: BJ-TERT fibroblast viability loss – cell-based, RAS-independent, luminescence, dose response (AID 1933); format: functional; settings: Homo sapiens
[4] = DRD fibroblast viability loss – cell-based, non-viral oncogenic, luminescence, dose response (AID 1934); format: functional; settings: Homo sapiens
[5] = THP-1 cell cytotoxicity, dose response, cytotoxicity control for non-replicating M. tuberculosis project (AID 489025); format: functional
[6] = Vero E6 cell cytotoxicity, dose response, cytotoxicity control for non-replicating M. tuberculosis project, secondary assay (AID 492998); format: functional, VeroE6; settings: Vero C1008
INS1 = assay: INS-1E survival protection against cytokine death – cell-based, luminescence, retest, dose response (AID 449756); format: functional; settings: Rattus norvegicus;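 further: cell death triggered by IL-1 beta plus TNF-alpha plus IFN-gamma mixture; protective hits raise ATP signal compared with cytokine alone wells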
Nonstructural protein 1 = Nonstructural protein 1 (Influenza A virus, UniProt Q194T2); format: functional, Influenza A virus (A/California/07/2009(H1N1))
[7] = microbe, parasite or virus in culture; format: functional; settings: Mycobacterium tuberculosis
[8] = target: Lysine-specific demethylase 4A (Homo sapiens, UniProt O75164); assay: inhibition of JMJD2A H3K9me3 demethylation – biochemical, DELFIA europium, cherry-picked samples, selectivity assay for GASC-1 inhibitor project, dose response (AID 488840)
BJ [9] = assay: cells; format: functional, cell-based; settings: Homo sapiens
[10] = target: T1, Voltage-gated N-type calcium channel alpha-1B subunit/Amyloid beta A4 precursor protein-binding family A member 1 (Homo sapiens, UniProt Q00975+Q02410); assay: disruptors of Mint-PDZ/N-type channel peptide interaction – biochemical, HTRF, SAR follow-up (AID 2489); format: functional
SUMO E1/E2 = SUMO E1/E2 (Homo sapiens, UniProt P63279+Q9UBE0+Q9UBT2); assay: SAR analysis of SUMOylation using HTRF in an in-Vitro dose response assay. [Related pubchem assays (depositor defined):AID2006, AID2011, AID2018, AID2069, AID2658]; format: functional
[11] = target: T1, Voltage-gated N-type calcium channel alpha-1B subunit/Amyloid beta A4 precursor protein-binding family A member 1; assay: disruptors of Mint-PDZ/N-type channel peptide interaction – biochemical, HTRF, set 2, SAR follow-up (AID 434980); format: functional

T1 sequence (Q00975 whole entry): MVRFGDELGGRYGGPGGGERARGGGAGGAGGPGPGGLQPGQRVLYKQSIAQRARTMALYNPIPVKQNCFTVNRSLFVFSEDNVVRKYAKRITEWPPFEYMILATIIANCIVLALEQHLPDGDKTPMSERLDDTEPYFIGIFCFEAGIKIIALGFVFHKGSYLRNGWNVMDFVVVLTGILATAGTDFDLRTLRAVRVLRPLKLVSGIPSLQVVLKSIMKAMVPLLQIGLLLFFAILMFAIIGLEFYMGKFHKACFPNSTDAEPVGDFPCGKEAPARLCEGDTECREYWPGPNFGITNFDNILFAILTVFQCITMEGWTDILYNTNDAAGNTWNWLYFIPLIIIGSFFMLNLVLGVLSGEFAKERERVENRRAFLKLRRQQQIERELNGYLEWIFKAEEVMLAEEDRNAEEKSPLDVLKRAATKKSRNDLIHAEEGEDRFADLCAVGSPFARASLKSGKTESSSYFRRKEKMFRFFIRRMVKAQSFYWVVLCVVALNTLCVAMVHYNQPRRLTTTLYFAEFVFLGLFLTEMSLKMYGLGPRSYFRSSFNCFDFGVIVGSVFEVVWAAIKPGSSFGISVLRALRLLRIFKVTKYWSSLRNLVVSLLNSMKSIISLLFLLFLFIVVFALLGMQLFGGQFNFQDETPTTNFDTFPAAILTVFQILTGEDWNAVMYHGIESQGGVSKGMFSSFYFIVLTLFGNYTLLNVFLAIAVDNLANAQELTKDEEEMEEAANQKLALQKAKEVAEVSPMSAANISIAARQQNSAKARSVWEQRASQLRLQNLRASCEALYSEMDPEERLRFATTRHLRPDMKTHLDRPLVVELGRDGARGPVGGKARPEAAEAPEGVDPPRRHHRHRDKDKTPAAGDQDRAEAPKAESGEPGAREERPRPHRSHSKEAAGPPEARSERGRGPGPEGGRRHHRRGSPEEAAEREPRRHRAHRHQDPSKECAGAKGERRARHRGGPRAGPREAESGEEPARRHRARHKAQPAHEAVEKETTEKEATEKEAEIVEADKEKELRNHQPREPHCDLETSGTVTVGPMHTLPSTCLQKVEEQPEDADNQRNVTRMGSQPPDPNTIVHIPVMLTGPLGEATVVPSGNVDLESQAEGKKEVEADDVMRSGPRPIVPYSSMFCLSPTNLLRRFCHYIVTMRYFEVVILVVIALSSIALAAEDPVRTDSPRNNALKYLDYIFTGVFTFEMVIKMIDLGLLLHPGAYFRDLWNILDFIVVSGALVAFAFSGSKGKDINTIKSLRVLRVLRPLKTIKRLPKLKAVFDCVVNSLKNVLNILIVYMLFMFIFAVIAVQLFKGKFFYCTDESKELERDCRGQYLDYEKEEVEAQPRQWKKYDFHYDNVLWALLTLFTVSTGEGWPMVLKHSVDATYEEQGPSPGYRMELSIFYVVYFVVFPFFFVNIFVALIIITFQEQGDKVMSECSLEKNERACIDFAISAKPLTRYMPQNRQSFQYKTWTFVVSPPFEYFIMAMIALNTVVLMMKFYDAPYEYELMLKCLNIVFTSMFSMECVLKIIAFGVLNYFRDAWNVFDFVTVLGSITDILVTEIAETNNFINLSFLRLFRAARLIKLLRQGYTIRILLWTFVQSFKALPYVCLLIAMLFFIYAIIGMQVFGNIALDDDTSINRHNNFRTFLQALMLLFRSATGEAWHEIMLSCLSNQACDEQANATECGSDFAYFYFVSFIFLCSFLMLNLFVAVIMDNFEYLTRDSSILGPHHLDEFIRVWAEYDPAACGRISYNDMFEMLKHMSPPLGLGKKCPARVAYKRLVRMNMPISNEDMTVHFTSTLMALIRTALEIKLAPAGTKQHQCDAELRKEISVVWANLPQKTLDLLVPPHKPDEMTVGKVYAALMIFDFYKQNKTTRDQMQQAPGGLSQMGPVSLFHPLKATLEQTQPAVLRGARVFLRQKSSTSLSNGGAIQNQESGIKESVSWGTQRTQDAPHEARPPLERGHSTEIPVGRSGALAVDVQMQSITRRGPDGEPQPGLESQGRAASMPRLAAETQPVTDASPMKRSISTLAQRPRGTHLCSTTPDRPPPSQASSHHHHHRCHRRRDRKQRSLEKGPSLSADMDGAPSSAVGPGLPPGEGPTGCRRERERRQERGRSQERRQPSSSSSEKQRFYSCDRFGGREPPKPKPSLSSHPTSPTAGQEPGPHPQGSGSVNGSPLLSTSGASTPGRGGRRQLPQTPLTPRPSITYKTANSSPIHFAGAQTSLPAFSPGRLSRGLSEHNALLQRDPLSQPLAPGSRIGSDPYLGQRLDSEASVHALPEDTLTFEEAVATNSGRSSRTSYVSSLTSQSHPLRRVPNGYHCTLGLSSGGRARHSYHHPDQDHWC
T1 sequence (Q02410 whole entry): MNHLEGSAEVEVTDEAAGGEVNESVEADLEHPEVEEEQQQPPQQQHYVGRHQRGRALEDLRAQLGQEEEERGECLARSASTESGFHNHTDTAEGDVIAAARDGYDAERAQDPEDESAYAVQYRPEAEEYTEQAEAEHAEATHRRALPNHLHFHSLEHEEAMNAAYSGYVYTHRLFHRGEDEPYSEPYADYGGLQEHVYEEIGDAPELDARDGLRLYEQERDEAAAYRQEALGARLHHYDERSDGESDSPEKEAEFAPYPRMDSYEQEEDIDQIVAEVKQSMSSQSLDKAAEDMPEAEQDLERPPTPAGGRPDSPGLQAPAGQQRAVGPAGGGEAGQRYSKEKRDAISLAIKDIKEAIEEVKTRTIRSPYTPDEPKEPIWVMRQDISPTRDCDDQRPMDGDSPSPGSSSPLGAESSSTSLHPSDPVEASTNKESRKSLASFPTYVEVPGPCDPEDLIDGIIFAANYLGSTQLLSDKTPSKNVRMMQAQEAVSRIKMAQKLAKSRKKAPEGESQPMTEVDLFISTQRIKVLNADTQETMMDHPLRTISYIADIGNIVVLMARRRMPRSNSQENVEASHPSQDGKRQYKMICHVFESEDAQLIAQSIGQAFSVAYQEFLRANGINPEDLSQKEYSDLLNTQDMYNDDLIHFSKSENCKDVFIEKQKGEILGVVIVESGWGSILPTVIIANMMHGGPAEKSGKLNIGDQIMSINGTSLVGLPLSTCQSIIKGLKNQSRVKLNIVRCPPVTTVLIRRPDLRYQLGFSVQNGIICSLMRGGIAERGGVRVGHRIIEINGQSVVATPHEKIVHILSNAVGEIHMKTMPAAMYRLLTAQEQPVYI
Sequence of Lysine-specific demethylase 4C (Q9H3R0 whole entry): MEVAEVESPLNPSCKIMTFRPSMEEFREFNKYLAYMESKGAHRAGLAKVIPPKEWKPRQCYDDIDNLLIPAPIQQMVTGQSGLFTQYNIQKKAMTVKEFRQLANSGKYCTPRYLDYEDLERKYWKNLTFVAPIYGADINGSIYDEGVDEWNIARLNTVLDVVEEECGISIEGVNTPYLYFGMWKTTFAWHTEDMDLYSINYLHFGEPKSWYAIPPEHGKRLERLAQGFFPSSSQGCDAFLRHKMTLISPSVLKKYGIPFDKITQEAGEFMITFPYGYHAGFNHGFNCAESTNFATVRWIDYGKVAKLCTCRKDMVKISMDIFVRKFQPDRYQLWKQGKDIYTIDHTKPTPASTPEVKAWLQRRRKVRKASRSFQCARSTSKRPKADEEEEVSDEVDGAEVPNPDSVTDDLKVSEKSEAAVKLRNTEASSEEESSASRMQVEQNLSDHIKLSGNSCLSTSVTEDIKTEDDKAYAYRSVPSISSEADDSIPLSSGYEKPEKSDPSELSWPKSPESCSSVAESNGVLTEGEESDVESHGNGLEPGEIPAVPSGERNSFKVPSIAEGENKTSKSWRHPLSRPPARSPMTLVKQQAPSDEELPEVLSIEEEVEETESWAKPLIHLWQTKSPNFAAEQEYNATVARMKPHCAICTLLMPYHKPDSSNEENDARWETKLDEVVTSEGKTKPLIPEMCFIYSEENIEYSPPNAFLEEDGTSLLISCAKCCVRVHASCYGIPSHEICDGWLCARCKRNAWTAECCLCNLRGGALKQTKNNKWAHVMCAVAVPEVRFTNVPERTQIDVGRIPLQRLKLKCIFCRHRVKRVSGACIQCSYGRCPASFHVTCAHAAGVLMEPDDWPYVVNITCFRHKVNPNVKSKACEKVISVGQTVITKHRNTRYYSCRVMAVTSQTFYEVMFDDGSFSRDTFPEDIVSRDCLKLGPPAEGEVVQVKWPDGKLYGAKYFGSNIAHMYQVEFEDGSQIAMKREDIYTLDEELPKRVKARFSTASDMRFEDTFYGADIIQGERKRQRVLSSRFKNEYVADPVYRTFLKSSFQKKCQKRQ
Sequence of Nonstructural protein 1 (Q194T2 whole entry): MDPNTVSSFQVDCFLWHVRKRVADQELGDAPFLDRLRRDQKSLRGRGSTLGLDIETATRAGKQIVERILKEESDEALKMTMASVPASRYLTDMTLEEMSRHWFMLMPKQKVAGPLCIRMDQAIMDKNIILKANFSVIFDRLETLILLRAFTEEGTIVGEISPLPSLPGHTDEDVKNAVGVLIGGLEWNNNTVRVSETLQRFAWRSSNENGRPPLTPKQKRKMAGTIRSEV

N#C/C(N=Nc1ccccc1O)=N\Nc1ccccc1O
active: EC50 (BJ [1]) 6.76 µM | IC50 (cells) 1.29 µM | AC50 [2] 0.388 µM | EC50 (BJ [3]) 5.98 µM | EC50 [4] 8.75 µM | CC50 [5] 3.15 µM | CC50 [6] 7.05 µM | AC50 (INS1) 2.3 µM | IC50 (Nonstructural protein 1) 10.9 µM | CC50 [7] 4.13 µM | AC50 [8] 3.37 µM | EC50 (BJ [9]) 7.91 µM

CN(Cc1ccc(F)cc1)C(=O)COC(=O)c1cc(-c2ccco2)nc2ccccc12
active: IC50 [10] 19.1 µM | IC50 (SUMO E1/E2) 2.41 µM | IC50 [11] 11.5 µM
